Source: US11767319B2, “Crystalline forms of a selective c-kit kinase inhibitor” (Third Harmonic Bio, Inc., priority 2020, dated 2023)
Entries after “also recorded” stand apart in the source; their conditions may differ.

Columns and labels:
Assay type in all cases: physicochemical
[1] = Slurry experiments in SGF; conditions: 37° C., 500 rpm
Experimental: About 200 mg of sodium chloride and about 100 mg Triton X-100 was weighted into a 100-mL volumetric flask. About 100 mL of purified water was added to the flask and the solution was sonicated until all solids were completely dissolved. 1 M HCl was added to adjust the pH to 1.8 and the solution was mixed well and the pH was checked with a pH meter.
Competitive slurry experiments were performed for Forms A, H^A, H^B, C and D in SGF. About 10 mg of each form was added into separate HPLC vials followed by addition of 1.0 mL SGF in order to form slurries. The slurries were heated to 37° C. and stirred at 500 rpm. After 2 h or 24 h, the samples were centrifuged and the solids were collected for XRPD testing.

[2] = Variable temperature XRPD of Form D; conditions: heating to 150° C. or cooling to 30° C. under N2 purge
Experimental: FIG. 2D depicts a variable temperature XRPD of Form D of compound 1. The variable temperature experiment was conducted to further investigate the weight loss observed in the TGA curve.

[3] = Competitive slurry experiments among anhydrates (IPA/IPAc); conditions: at RT and 50° C., IPA/IPAc slurries
Experimental: Competitive slurry experiments were performed in IPA/IPAc at RT/50° C. between anhydrates Form A of compound 1 and Form D of compound 1. Form A of compound 1 was added into each solvent to form a slurry at RT or 50° C. and was stirred for 2 h. The slurries were then filtered to obtain saturated solution. Around 10 mg each of Form A of compound 1 and Form D of compound 1 were added into each solution to form a mixed slurry at RT or 50° C. […] The formation of Form H^A of compound 1 is postulated to be caused by residual water in the solvents or due to ambient humidity (˜35% humidity during slurry experiments).

[4] = Dynamic Vapor Sorption (DVS) of Form C
Experimental: Approximately, 10 mg of sample was placed into a mesh vapor sorption balance pan and loaded into a DVS-1/DVS Intrinsic/DVS Advantage dynamic vapor sorption balance by Surface Measurement Systems. The sample was subjected to a ramping profile from 40-90% relative humidity (RH) at 10% increments, maintaining the sample at each step until a stable weight had been achieved (dm/dt 0.004%, minimum step length 30 min, maximum step length 500 min) at 25° C. After completion of the sorption cycle, the sample was dried using the same procedure to 0% RH and then a second sorption cycle back to 40% RH. Two cycles were performed. The weight change during the sorption/desorption cycles were plotted, allowing for the hygroscopic nature of the sample to be determined. XRPD analysis was then carried out on any solid retained.
FIGS. 1D and 1E depict DVS plots of Form C of compound 1. […] Below 20% RH, Form C experienced a mass loss of 8.6%, about equal to 2 equivalents of water.
(§1) FIG. 1F depicts a set of XRPD patterns of Form C of compound 1, comparing the originally isolated form, material after DVS experiments and material after being dried under vacuum. […] Form G was also observed after vacuum drying of Form C.

Vacuum drying of Form C = conditions: dried under vacuum
Experimental: as §1
Procedure A: Form C of compound 1 was dried under vacuum at 40° C. for about 2 hours. After drying Form G was recovered.

Structure (SMILES): Cc1ccc(-c2noc([C@H]3C[C@@H]3F)n2)cc1NC(=O)c1cnc2ccccn12 [Form D, N-(5-(5-((1R,2S)-2-fluorocyclopropyl)-1,2,4-oxadiazol-3-yl)-2-methylphenyl)imidazo[1,2-a]pyridine-3-carboxamide]
- XRPD at 2 h [1]: transformed to Form C
- XRPD at 24 h [1]: a mixture of Form C and an HCl salt form
- form change in variable temperature XRPD [2]: no form change
- relative thermodynamic stability [3]: thermodynamically more stable than Form A

Structure (SMILES): Cc1ccc(-c2noc([C@H]3C[C@@H]3F)n2)cc1NC(=O)c1cnc2ccccn12 [Form C, N-(5-(5-((1R,2S)-2-fluorocyclopropyl)-1,2,4-oxadiazol-3-yl)-2-methylphenyl)imidazo[1,2-a]pyridine-3-carboxamide]
- XRPD at 2 h [1]: No form change; also recorded: Form C
- XRPD at 24 h [1]: No form change; also recorded: Form C
- form after DVS (XRPD) ([4]; after DVS experiments): converted into Form G
- mass loss (DVS) ([4]; below 20% RH, 25° C.): 8.6%
- total mass uptake (DVS) ([4]; between 20% and 90% RH, 25° C.): 0.6%
- form after vacuum drying (XRPD) (Vacuum drying of Form C): Form G
